Experimental data from patent US12268901B2, “Targeting cell tropism receptors to inhibit cytomegalovirus infection” (priority 2017, dated 2025).

What was measured:
Format in all cases: cell-based, Human cytomegalovirus (HCMV)
[1] = tested on: TB40E-GFP infection of ARPE19 cells; assay: cAMP/PKA signaling pathway modulation, TB40E-GFP infection; details: H-89 20 μM, SQ22536 150 μM, FSK 20 μM, 2 h prior to infection, MOI=4.0, 48 hpi
Procedure: (§1) FIGS. 7A-C. HCMV receptor engagement and cAMP/PKA signaling. ARPE19 or OR14I1 knock down cells were pretreated with phosphokinase A (PKA) inhibitor H-89 (20 μM), adenylate cyclase antagonist, SQ22536 (150 μM), or adenylate cyclase activator, forskolin (FSK; 20 μM) for 2 h prior to TB40E-GFP infection (MOI=4.0). Cells were fixed at 48 hpi and images taken.
H-89, SQ22536 and Foskolin were purchased from Sigma-Aldrich Chemicals. Wild type ARPE19 or ARPE19 cells expressing the indicated shRNAs were treated with protein kinase A (PKA) inhibitor H-89 (20 μM), adenylate cyclase antagonist, SQ22536 (150 μM), or adenylate cyclase activator, forskolin (FSK; 20 μM) for 2 h prior to infection with TB40E-GFP (MOI=2.0). After 2 h, the medium was then replaced by the standard medium that also contained the noted small molecules. Images were taken at 2 dpi.
as §1, with “HCMV” for “FIGS. 7A-C. HCMV”, “signaling was also evaluated.” for “signaling.”, “(MOI=4.0).” for “(MOI=4.0). Cells were fixed at 48 hpi and images taken.”

[2] = tested on: HCMV infection of ARPE19 epithelial cells; assay: Peptide blocking assay, infection of ARPE19 cells (percent GFP or IE positive cells); details: short peptides 150 uM preincubated with TB40E, ARPE19, MOI=2.0, 2 dpi
Procedure: (A) Different amounts of peptide 1 were preincubated with TB40E-GFP virus and the mixture applied to ARPE19. Viral DNA levels were quantified by qPCR. (B) The results in (A) are presented as the relative amount of viral DNA relative to the DMSO control. (C) TB40E-GFP virus was preincubated with peptide 1 (100 μg/ml), or DMSO, followed by infection of ARPE19 cells (MOI=2.0). Cells were imaged for GFP expression at 2 dpi (D2) and 7 dpi (D7). (D) TB40E-GFP or BADrUL131-GFP virus, both expressing PC, were preincubated with peptide 1 (100 μg/ml), or DMSO prior to infection of ARPE19 cells (MOI=2.0). Cells were fixed and imaged for GFP at 2 dpi. All data represent the mean of n=3 experiments+/−SD. (E) Culture media supernatants from (C) were harvested on the indicated dpi and assayed for infectious virus by plaque assay. Values indicate the mean percent infected cells of 3 independent experiments±SD. ****p<0.0001.
FIG. 9. […] TB40E-GFP encoding the viral PC or AD169 lacking PC were preincubated with peptide 1 (100 μg/ml) and then infected on ARPE19 epithelial cells or HEL fibroblasts (MOI=2.0). Cells were fixed, permeabilized, stained for DNA, immunostained for anti-immediate early protein (IE) and imaged. […] Values indicate the mean percentage of infected cells of n=3 experiments±SD. **p<0.01; ***p<0.001.
FIG. 11. Each of the short peptides (aa sequences listed in Table 4; 150 uM), Peptide 1 (32.6 μM), or DMSO alone was preincubated with TB40E virus, followed by infection of ARPE19 cell lines (MOI=2.0). Cells were fixed and imaged for GFP and DNA at 2 dpi. Quantitation data indicating the percent GFP positive cells.
Live cell images: Phase and GFP signal images were captured on a Zeiss microscope (Zeiss AxioObserver Z1) at 10× magnification. Fixed cell images: cells were washed with PBS (Life Technologies) and fixed with 4% formalin in PBS (Sigma). DNA was stained with Hoechst 33342 dye (Life Technologies). The fixed cells were imaged using an Image Xpress Micro (IXM, Molecular Devices) at 4× magnification. Images were analyzed with MetaXpress imaging software (Molecular Devices) to determine the total cells per well and the percentage of infected cells (GFP positive) in each well. For IE immunostaining: fixed cells were permeabilized with 0.2% Triton X-100 (Sigma) in PBS. Blocking was performed with 1% BSA (Calbiochem, 2930) in PBS with 0.3M glycine (Sigma). Cells were then incubated in antibody targeting the major IE proteins (IE, EMD Millipore, MAB8131) diluted in 1% BSA in PBS. Cells were then incubated in secondary antibody (Texas Red-conjugated goat anti-mouse IgG2A, Southern Biotech, 1080-07) in PBS containing 1% BSA.
At 2 dpi with HCMV TB40E-GFP virus at the indicated MOI, ARPE19 cells were fixed with 4% formaldehyde and nuclei stained with Hoechst 33342. ARPE19 cells were imaged on an automated IXM scanning microscope. Numbers of infected cells were determined by calculating the percent GFP positive cells using MetaXpress software.
The noted synthetic peptides (100 ug/ml each or as described) were mixed with TB40E-GFP virus (1.2×10^6 PFU) and incubated at 37° C. for 2 h by rocking. The resulting samples were then subjected to the virus binding or infection assay.

[3] = tested on: HCMV Ad169 infection of HEL fibroblasts; assay: shRNA knockdown HEL fibroblasts infected with Ad169; details: MOI=1.0, 48 hpi
Procedure: (§2) Each shRNA was cloned into the pLKO.1-blast (Addgene) lentiviral vector followed by viral packing and multiple rounds of amplification in 293T cells. Essentially, the pLKO.1-blast constructs and packaging plasmids were co-transfected into 293T cells with the resulting supernatant harvested at 36 h. Lentiviruses were recovered by ultracentrifugation for 2 h at 28,000 rpm in a Beckman SW28 rotor and resuspensed in DMEM. The lentiviruses were used to transduce the ARPE19 or HEL cells to generate shRNA knock down cells. Populations of stable cells were selected with blasticidin (Invitrogen, 10 μg/ml) for 1 week.
(§3) The role of these proteins in fibroblast cell-type specific tropism in HCMV infection was also evaluated. The sgRNA knock out HEL-cas9 fibroblast pools were infected with HCMV Ad169 virus at MOI=3, and images were taken 48 hpi. […] HCMV infection resistance was also evaluated after knockdown using shRNA, in epithelial cells. The shOR14I1, shDMBT1 or shPDGFRA shRNA knock down ARPE19 cells were infected with TB40E-GFP virus at MOI=0.1, and images were taken 48 hpi. […] Actin is included as a loading control. Resistance to CMV infection was also evaluated in shPDGFRA, shOR14I1 or shDMBT1 knockdown HEL fibroblasts. Fibroblasts were infected with Ad169 at M01=1.0, and images were taken 48 hpi. […] Western blotting was used to confirm the depletion of PDGFRA and OR14I1 in the cells used in the experiments shown in FIG. 2H; the results are shown in FIG. 2I.

[4] = tested on: TB40E-GFP entry into ARPE19 cells; assay: Cell-internalized virus assay in shRNA transduced ARPE19 cells; details: shRNA transduced ARPE19, TB40E-GFP MOI of 2.0, on ice 1 h then 37° C. for 2 h
Procedure: In parallel to the virus binding assay, a subset of plates were then shifted to 37° C. for 2 h to allow virus entry. […] After 10 cold PBS washes, internalized viral DNA levels were quantified by qPCR.
To determine whether human OR14I1 and DMBT1 are required for optimal binding of HCMV TB40E-GFP to cells, shPDGFRA, shOR14I1 and shDMBT1 transduced ARPE19 cells were infected with TB40E-GFP at an MOI of 2.0 on ice for 1 h. The cells were washed ten times with cold PBS, and viral DNA associated with the cells was quantified by qPCR. As shown in FIGS. 3A-B, OR14I1 and DMBT1 are required for optimal binding of HCMV TB40E-GFP to cells. In addition, shPDGFRA, shDMBT1 and shOR14I1 transduced ARPE19 cells were infected with TB40E-GFP at an MOI of 2.0 on ice for 1 h. The cells were then shifted to 37° C. for 2 h to allow the virus entry. […] After 10 cold PBS washes, internalized viral DNA levels were quantified by qPCR.

[5] = tested on: TB40E-GFP infection of ARPE19 cells; assay: shRNA knock down ARPE19 cells infected with TB40E-GFP; details: for percentage of GFP positive cells (flow cytometry): shRNA knock down ARPE19, TB40E-GFP, 48 hpi; for resistance to TB40E-GFP infection (GFP images): shRNA knock down ARPE19 cells, MOI=0.1, 48 hpi
Procedure: as §2
48 h after HCMV TB40E-GFP infection, ARPE19 cells were then treated with cell dissociation buffer (Gibco) and incubated at 37° C. for 10 min. Samples were then washed three times with cold buffer and fixed with cold 2% paraformadehyde in PBS. Cells were pelleted and washed and resuspended in washing buffer (0.1% tween-20 in PBS). Finally, the cells were resuspended in staining buffer (1% BSA, 0.1% sodium azide in HBSS) after pelleting again and immunofluorescent cells analyzed using a MACSQUANT analyzer 10 (Miltenyi Biotec) using blue laser 488 nm and filter 525/50 nm. Results were analyzed using FLOWJO V9.9 image analysis software.
as §3

| Compound | ability to inhibit HCMV infection (percent GFP positive cells) [2] | resistance to Ad169 infection [3] | internalized viral DNA, viral load as compared to control-infected cells [4] | percentage of GFP positive cells (flow cytometry) [5] | resistance to TB40E-GFP infection (GFP images) [5] | other results |
| --- | --- | --- | --- | --- | --- | --- |
| O=S(=O)(NCCNC/C=C/c1ccc(Br)cc1)c1cccc2cnccc12 [Peptide H-89] | – | – | – | – | – | infectivity of TB40E-GFP in ARPE19 epithelial cells [1]: reduced infectivity significantly |
| Nc1ncnc2c1ncn2C1CCCO1 (stereo not drawn) [SQ22536, 9-(Tetrahydro-2-furanyl)-9H-purin-6-amine] | – | – | – | – | – | infectivity of TB40E-GFP in ARPE19 epithelial cells [1]: reduced infectivity significantly |
| EFLLMEFSGIWEL (OR14I1 peptide 9-21aa) | some inhibition | – | – | – | – | – |
| FLLMEFSGIWELQ (OR14I1 peptide 10-22aa) | best activity | – | – | – | – | – |
| GCAGAAGCTCCATCTCTTATC (expressed or natural sequence) [shOR14I1, shRNA targeting OR14I1, in pLKO.1-blast lentiviral vector] | – | not | about 50% | significant decrease in GFP-expressing cells | resistance was seen | – |
| GCCTTTGTACCTCTAGGAATG (expressed or natural sequence) [shPDGFRA, shRNA targeting PDGFRA, in pLKO.1-blast lentiviral vector, reference compound] | – | resistant to infection | about 50% | significant decrease in GFP-expressing cells | resistance was seen | – |
| GGAGTCAACTGTAGCAGAAGG (expressed or natural sequence) [shDMBT1, shRNA targeting DMBT1, in pLKO.1-blast lentiviral vector] | – | not | about 50% | significant decrease in GFP-expressing cells | resistance was seen | – |
| LLMEFSGIWELQV (OR14I1 peptide 11-23aa) | best activity | – | – | – | – | – |
| LMEFSGIWELQVL (OR14I1 peptide) [Peptide 12-24] | best activity | – | – | – | – | – |
